“And” between values parts separate entries of the source, which are not always exact repeats. Identical values can stand only once.

The text below walks through data of paper PMC11576293, “New series of 4,6-diaryl pyrimidines: facile synthesis and antiproliferative activity as dual EGFR/VEGFR-2 inhibitors” (Frontiers in Chemistry, 2024).

The subject of data set [1] is four cancer cell lines (A-549, MCF-7, Panc-1, HT-29). The experiment in a line: Antiproliferative assay, average over four cancer cell lines. Particulars: Homo sapiens; average of the four cancer cell lines; read-out: Average IC50 (GI50). The class given is cell-based. The text has this:
Table 2 presents the four cancer cell lines’ median inhibitory concentration (IC50) and GI50 (average IC50) values.
The IC50 values were derived from dose-response tests. The reported data are derived from at least two independent studies, each comprising three replicates per concentration. See Supplementary Material A1 for more details.

A further data set has as its system Bcl-2. The experiment in a line: Bcl-2 inhibition assay. The class given is cell-based, human. Particulars: A-549 cell line. The method, then:
4.2.8. Bcl-2 inhibition assay
Mix all reagents thoroughly without foaming before use. Wash the microwells twice with approximately 300 μL Wash Buffer per well with thorough aspiration of microwell contents between washes. Take caution not to scratch the surface of the microwells. After the last wash, empty the wells and tap microwell strips on absorbent pad or paper towel to remove excess Wash Buffer. Use the microwell strips immediately after washing or place upside down on a wet absorbent paper for not longer than 15 minutes. […] Add 100 μL of Sample […]
Diluent in duplicate to all standard wells and to the blank wells. Prepare standard (1:2 dilution) in duplicate ranging from 32 ng/mL to 0.5 ng/mL. Add 100 μL of Sample Diluent, in duplicate, to the blank wells. Add 80 μL of Sample Diluent, in duplicate, to the sample wells. Add 20 μL of each Sample, in duplicate, to the designated wells. Add 50 μL of diluted biotin-conjugate to all wells, including the blank wells. Cover with a plate cover and incubate at room temperature, on a microplate shaker at 100 rpm if available, for 2 hours. Remove plate cover and empty the wells.
Wash microwell strips 3 times as described in step 2. Add 100 μL of diluted Streptavidin-HRP to all wells, including the blank wells. Cover with a plate cover and incubate at room temperature, on a microplate shaker at 100 rpm if available, for 1 hour. Remove plate cover and empty the wells.
Wash microwell strips 3 times as described in step 2. Proceed to the next step. Pipette 100 μl of mixed TMB Substrate Solution to all wells, including the blanks. Incubate the microwell strips at room temperature (18° to 25°C) for about 15 minutes, if available on a rotator set at 100 rpm.
Avoid direct exposure to intense light. The point, at which the substrate reaction is stopped, is often determined by the ELISA reader. Many ELISA readers record absorbance only up to 2.0
O.D. Therefore, the color development within individual microwells must be watched by the person running the assay and the substrate reaction stopped before positive wells are no longer properly detectable. Stop the enzyme reaction by quickly pipetting 100 μL of Stop Solution into each well, including the blank wells. It is important that the Stop Solution is spread quickly and uniformly throughout the microwells to completely inactivate the enzyme. Results must be read immediately after the Stop Solution is added or within one hour i f the microwell strips are stored at 2 - 8°C in the dark. Read absorbance of each microwell on a spectrophotometer using 450 nm as the primary wavelength.

The nature of data set [2]: Experimental lipophilicity by RP-TLC. It is filed as physicochemical. The text has this:
The RP-TLC method was used to measure the lipophilicity parameters (RMo, b, and Co) described in the experimental section. The mobile phase consisted of different proportions of water and organic modifier (MeOH). RF and RM values were obtained for each ratio of organic modifier/water system (Supplementary Table S3), and a linear regression analysis was achieved to obtain the lipophilicity chromatographic descriptors (RMo, b, and Co, see Table 6). Relative lipophilicity (RMo) describes the partitioning of the solute between pure water and nonpolar stationary phase. In contrast, the second lipophilicity parameter (Co) represents the concentration of organic modifier in the mobile phase in which the solute is equally distributed between two phases (i.e., RM = 0, and Rf = 0.5). Also, Co is known to be widely used in QSAR analysis as it embraces both the specific hydrophobic surface area of the solute and RMo. […] Finally, the slope of the regression line (b) was used as a descriptor of the specific hydrophobic surface area of the compound. In a series of structurally related compounds, b is linearly correlated with RMo, resulting in a linear relationship that is the basic feature of the chromatographic determination of lipophilicity. […] Moreover, substituents affected tested compounds’ measured lipophilicity parameter (RMo) values. Higher RMo values were found with lipophilic derivatives containing the benzyl group (14, 22, and 28), while lower RMo values were found with derivatives containing alkyl or allyl groups (19, 26, and 27). An interesting contradiction was found with experimental lipophilicity value of 28 and its congener 14, where compound 28 was found more lipophilic than its congener 14 even though it contains two methoxy groups and according to ChemDraw® and MolSoft® programs, derivative 14 should be more lipophilic while the MOE® program expects values matching our findings. […] Also, S-allyl derivatives were nearly equipotent to S-alkyl congeners as antiproliferative agents but quite different in terms of lipophilicity.

The target of a further data set is VEGFR-2 (Homo sapiens, UniProt P35968). As to the kind of experiment: VEGFR-2 inhibitory assay.
Sequence of VEGFR-2 (P35968 20-1356): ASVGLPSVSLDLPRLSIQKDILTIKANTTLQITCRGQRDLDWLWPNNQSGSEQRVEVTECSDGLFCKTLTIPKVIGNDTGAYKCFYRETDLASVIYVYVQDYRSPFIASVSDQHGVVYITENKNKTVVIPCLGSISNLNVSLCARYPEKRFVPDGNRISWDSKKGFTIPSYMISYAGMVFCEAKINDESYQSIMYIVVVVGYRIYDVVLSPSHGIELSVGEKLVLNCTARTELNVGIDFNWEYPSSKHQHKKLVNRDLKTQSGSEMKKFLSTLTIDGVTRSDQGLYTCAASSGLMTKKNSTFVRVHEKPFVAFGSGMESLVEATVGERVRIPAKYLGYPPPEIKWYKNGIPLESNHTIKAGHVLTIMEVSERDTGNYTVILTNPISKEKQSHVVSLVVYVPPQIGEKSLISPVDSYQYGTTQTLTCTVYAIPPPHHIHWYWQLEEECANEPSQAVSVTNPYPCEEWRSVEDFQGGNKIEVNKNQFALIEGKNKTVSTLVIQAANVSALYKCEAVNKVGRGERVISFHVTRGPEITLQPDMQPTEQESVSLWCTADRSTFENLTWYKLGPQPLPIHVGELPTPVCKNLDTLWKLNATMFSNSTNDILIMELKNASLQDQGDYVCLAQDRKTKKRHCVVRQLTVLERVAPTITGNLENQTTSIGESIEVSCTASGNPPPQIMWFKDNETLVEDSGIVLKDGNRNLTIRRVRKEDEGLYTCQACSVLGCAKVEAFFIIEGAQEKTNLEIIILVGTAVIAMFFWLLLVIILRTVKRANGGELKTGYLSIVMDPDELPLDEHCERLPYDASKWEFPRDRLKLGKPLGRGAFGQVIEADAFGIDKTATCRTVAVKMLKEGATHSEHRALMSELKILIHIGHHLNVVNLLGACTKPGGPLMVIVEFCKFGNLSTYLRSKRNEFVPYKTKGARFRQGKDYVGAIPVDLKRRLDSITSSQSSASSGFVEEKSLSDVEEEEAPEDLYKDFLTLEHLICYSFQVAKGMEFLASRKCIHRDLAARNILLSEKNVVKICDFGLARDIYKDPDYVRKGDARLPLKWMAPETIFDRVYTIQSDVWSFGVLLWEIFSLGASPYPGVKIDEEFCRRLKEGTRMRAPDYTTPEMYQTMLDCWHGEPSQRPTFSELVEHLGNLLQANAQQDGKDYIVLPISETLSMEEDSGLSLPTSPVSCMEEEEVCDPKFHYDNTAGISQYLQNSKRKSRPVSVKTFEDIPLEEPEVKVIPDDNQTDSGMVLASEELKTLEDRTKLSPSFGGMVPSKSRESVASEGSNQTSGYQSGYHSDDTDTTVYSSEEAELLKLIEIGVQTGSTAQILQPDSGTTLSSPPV
Another data set deals with KM12. The experiment in a line: NCI-60 single-dose screen. The note with it: Homo sapiens, single dose 10 µM, '-' = no inhibition, read-out: % Growth Inhibition. The class given is cell-based. Summed up: (§1)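 Values come from NCI-60 one-dose testing: compound at 10 μM against sixty human cancer cell lines of nine tissue types, performed at NCI DTP.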
The next data set relates to MOLT-4. As to the kind of experiment: NCI-60 single-dose screen. The class given is cell-based. Particulars: Homo sapiens, single dose 10 µM, '-' = no inhibition, read-out: % Growth Inhibition. Summed up: as §1
Another data set deals with SF-268. As to the kind of experiment: NCI-60 single-dose screen. The note with it: Homo sapiens, single dose 10 µM, '-' = no inhibition, read-out: % Growth Inhibition. The class given is cell-based. Summed up: as §1
The next data set addresses T1, EGFR (Homo sapiens, UniProt P00533).
T1 construct: amino acids 645–1186; His6 (N); made in house; host or cells: Sf-9 insect cells (baculovirus; pBlueBacHis2B / pFASTBacHTc)
The experiment in a line: EGFR-TK inhibitory assay. It is filed as biochemical. The note with it: read-out: EGFR inhibition IC50 ± SEM.

T1 sequence (P00533 669-1210): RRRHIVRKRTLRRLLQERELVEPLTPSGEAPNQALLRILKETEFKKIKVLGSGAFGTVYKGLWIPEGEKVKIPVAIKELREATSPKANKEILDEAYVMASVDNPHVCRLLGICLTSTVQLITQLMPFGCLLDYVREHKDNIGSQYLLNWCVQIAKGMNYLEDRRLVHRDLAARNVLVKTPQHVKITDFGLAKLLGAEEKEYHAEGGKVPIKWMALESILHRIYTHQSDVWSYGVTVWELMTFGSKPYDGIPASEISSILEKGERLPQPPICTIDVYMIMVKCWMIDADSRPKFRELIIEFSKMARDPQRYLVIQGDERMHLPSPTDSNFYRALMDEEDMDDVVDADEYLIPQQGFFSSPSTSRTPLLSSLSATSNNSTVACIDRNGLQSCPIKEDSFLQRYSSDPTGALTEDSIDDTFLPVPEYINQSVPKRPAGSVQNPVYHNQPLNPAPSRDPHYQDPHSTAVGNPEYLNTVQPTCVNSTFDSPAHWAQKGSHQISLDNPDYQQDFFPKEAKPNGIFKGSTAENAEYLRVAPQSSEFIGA

On to `COc1ccc(CSc2nc(-c3ccc(OC)cc3)cc(-c3cccc(OC)c3)n2)cc1` [Compound 22, 2-(4-Methoxybenzylthio)-6-(3-methoxyphenyl)-4-(4-methoxyphenyl)pyrimidine], for which the IC50 in data set [1] was 0.022 µM; on VEGFR-2, 0.00115 ± 1e-05 µM. Also, the “Bcl-2 Conc” value in the data set on Bcl-2 is 0.90 ng/mL. Moreover, the “Experimental lipophilicity RMo” value in data set [2] (MeOH/water mobile phase) was 6.449 ± 0.05873 and 6.24. The “Experimental lipophilicity Co” value in data set [2] (concentration of MeOH at RM = 0, in % (unit assumed)) was 90.6598 and 87.7.

For the molecule `COc1ccc(CSc2nc(-c3ccc(Cl)cc3)cc(-c3ccc(OC)c(OC)c3)n2)cc1` [Compound 29, 2-(4-Methoxybenzylthio)-4-(4-chlorophenyl)-6-(3,4-dimethoxyphenyl)pyrimidine], the values for the inhibition at 10 µM in the data set on KM12, in the data set on MOLT-4 and with SF-268 were 24.8%, 46.5% and 33%, respectively. For the same molecule, the 50% inhibitory concentration (IC50) was 0.024 µM in data set [1], 0.072 ± 0.005 µM at EGFR and 0.0016 ± 1e-05 µM against VEGFR-2. Besides, the “Bcl-2 Conc” value in the data set with Bcl-2 stood at 1.15 ng/mL. The “Bcl-2 Fold reduction” value with Bcl-2 (versus control) was 5 fold.

Broadly, the IC50 is the concentration at which inhibition is half-maximal. As a reminder, the inhibition is the percentage by which the read-out fell short of the control.
